Measurements from patent US8076059B2 (priority 2003, dated 2011).

How the values were obtained:
Design in all cases: species or system mice
Conditions in all cases: mouse, in vivo
[1] = system: anti-PA IgG
[2] = system: CD4 T-cells
[3] = system: peripheral mast cells

## cholera toxin [CT]
[1]
  adjuvant activity, serum anti-PA IgG by ELISA on day 175: significant adjuvant activity over PA alone
  adjuvant activity, serum anti-PA IgG geometric mean titers: significant adjuvant activity at all doses tested

## pertussis toxin
[2]
  T-cell recruitment to draining lymph nodes after T-cell pretreatment: inhibited T-cell recruitment to draining lymph nodes

## TNF-α
[3]
  lymph node hypertrophy after direct injection into footpads: marked lymph node hypertrophy
  time of maximal lymph node growth: 48 h
